Reference: paper PMC8016166, “Identification of a Potent and Selective 5-HT1A Receptor Agonist with In Vitro and In Vivo Antinociceptive Activity” (ACS Chemical Neuroscience, 2020)

Tests used:
hERG = biological target: T1, hERG (Homo sapiens, UniProt Q12809); experiment: CiPA hERG QPatch assay (hERG-CHO automated patch-clamp); assay type: cell-based; details: human, CHO cells expressing hERG (hERG-CHO), read-out: % inhibition of tail current in hERG-CHO
T1 construct: host or cells: CHO (hERG-CHO)
Description: (§1) After whole cell configuration is achieved, the cell is held at −80 mV. A 500 ms pulse to −40 mV is delivered to measure the leaking current, which is subtracted from the tail current online. Then, the cell is depolarized to +40 mV for 500 ms and then to −80 mV over a 100 ms ramp to elicit the hERG tail current. This paradigm is delivered once every 8 s to monitor the current amplitude.
(§2) The parameters measured were the maximum tail current evoked on stepping to 40 mV and ramping back to −80 mV from the test pulse. All data were filtered for seal quality, seal drop, and current amplitude. The peak current amplitude was calculated before and after compound addition, and the amount of block was assessed by dividing the Test compound current amplitude by the Control current amplitude. Control is the mean hERG current amplitude collected 15 s at the end of the control; Test Compound is the mean hERG current amplitude collected in the presence of test compound at each concentration.

[1] = biological target: T2, human voltage gated potassium ion channel hERG (Homo sapiens, UniProt Q12809); experiment: as above; assay type: cell-based; details: 0.1 and 1 μM, QPatch
T2 construct: host or cells: CHO (hERG-CHO)
Description: as §1, §2

male Albino Swiss mice = experiment: Hot plate test; assay type: in vivo, mouse
Experimental: The experiments were performed on male Albino Swiss mice (20–25 g), where 4 animals were kept in a cage, in an environmentally controlled room (ambient temperature 22 ± 1 °C; relative humidity 50–60%; 12 h light/dark cycle, lights on at 8:00). Standard laboratory food (LSM, Agropol-Motycz, Poland) and filtered water were available ad libitum. All the behavioral experiments were carried out in accordance with the European Community Council Directive for Care and Use of Laboratory Animals (2010/63/EU) (2016), and approved by the Local Ethics Committee for Animal Experimentation. The tested compounds were administered intraperitoneally (i.p.), dissolved in DMSO (its final concentration of 0.1%), suspended in 0.5% Tween-80 (1–2 drops) and then diluted using an aqueous solution of 0.5% methylcellulose (tylose). All the compounds were given in a manner generally accepted in experimental pharmacology, in a volume of 10 mL/kg body weight. The animals were weighed immediately before injection. Each group consisted of 8 members. The control animals received an equivalent volume of the solvent at the respective time before the tests. […] Between injections, the mice were provided with stable living conditions and unrestricted access to food and water. All the experiments were conducted in the light phase between 09.00 a.m. and 05.00 p.m. For the hot plate test, the mice were placed on a hot plate (Ugo Basile Srl, Gemonio, Italy) maintained at a constant temperature of 55 °C with a cutoff time of 20 s. The baseline latency response (in seconds), induced by the thermal stimulus, with the mouse lifting either of the hind paws or jumping with all four feet off the hot plate, before administration of a compound was measured first. The animals were then administered with compounds and the post-treatment latency responses were determined at 30 min time intervals up to 180 min after drug injection. The antinociceptive effects of the compounds were expressed as a percentage of maximum possible effect (%MPE), which was calculated according to the following equation: [(T1 – T0)/(20 – T0)] × 100, where T0 and T1 are the predrug and post-drug latencies for hot plate response, respectively.[37],[38] The results were calculated using the one-way analysis of variance (ANOVA) followed by Bonferroni’s post hoc test. The results are presented as the means ± standard errors of mean (S.E.M.). The level of p < 0.05 was considered statistically significant. All the figures were prepared using the GraphPad Prism ver. 5.00 for Windows (GraphPad Software, San Diego, CA, USA), www.graphpad.com.

[2] = system: superficial dorsal horn neurons (lamina I–II); experiment: Patch-clamp recording from spinal cord slices; assay type: cell-based, mouse; details: for neurons showing slow outward current: voltage clamp −60 mV
Experimental: The Italian Ministry of Health approved all the experiments that were conducted on postnatal CD1 mice (P18–P25) in accordance with the Guide for the Care and Use of Laboratory Animals and the EU and Italian regulations on animal welfare. The spinal cord slices were obtained following the procedure described previously.[69],[70] Briefly, the animals were anesthetized with isoflurane and decapitated, the spinal cord and vertebrae were rapidly removed and placed in ice-cold dissecting Krebs’ solution (composition in mM:125 NaCl, 2.5 KCl, 1.25 NaH2PO4, 26 NaHCO3, 25 glucose, 6 MgCl2, 1.5 CaCl2, and 1 kynurenic acid, pH 7.4, 320 mOsm), bubbled with 95% O2, 5% CO2. The lumbar spinal cord was isolated, embedded in an agarose block (low melting point agarose 3%, Thermo Fisher Scientific, Waltham, USA), and transverse slices (500 μm thick) were obtained using a vibrating microtome (WPI, Sarasota, USA). The slices were incubated in oxygenated incubation Krebs’ solution (the same as dissecting but without kynurenic acid) at 35 °C for 30 min and used for recording. The Patch-clamp recording in whole-cell configuration was performed on lamina I–II neurons at room temperature. The slices were perfused at 2 mL/min with recording Krebs’solution (in mM: 125 NaCl, 2.5 KCl, 1.25 NaH2PO4, 26 NaHCO3, 25 glucose, 1 MgCl2, and 2 CaCl2, pH 7.4, 320 mOsm). Recordings of post-synaptic currents (EPSCs) were performed in voltage clamp, by using an intracellular solution with the following composition (in mM): 120 potassium methanesulfonate, 10 NaCl, 10 EGTA, 1 CaCl2, 10 HEPES, 5 ATP-Mg, pH adjusted to 7.2 with KOH, osmolarity 300 mOsm. 8-OH-DPAT was obtained from Sigma-Aldrich (Saint Louis, USA). The data were recorded and acquired using a Multiclamp 700A amplifier and the pClamp 10 software (Molecular Devices, Sunnyvale, USA). The sampling rate was 10 kHz, and the data were filtered at 2 kHz. The data were analyzed off-line using pClamp10 software and Minianalysis (Synaptosoft, USA). The data are expressed as the mean ± SEM and differences were considered significant for p < 0.05. The statistical significance for the effect on EPSC frequency was determined using the Kolmogorov–Smirnov test on individual neurons.

5-HT1AR [3] = biological target: 5-HT1AR; design: method as in PMID 30043643; details: previous work; cited from earlier work
α1 = system: α1; design: method as in PMID 30043643; details: previous work; cited from earlier work
5-HT1AR [4] = system: 5-HT1AR; design: method as in PMID 30043643; details: previous work, cited from earlier work; for potency pD2: agonist, GTPγS assay

T1 sequence (Q12809 whole entry): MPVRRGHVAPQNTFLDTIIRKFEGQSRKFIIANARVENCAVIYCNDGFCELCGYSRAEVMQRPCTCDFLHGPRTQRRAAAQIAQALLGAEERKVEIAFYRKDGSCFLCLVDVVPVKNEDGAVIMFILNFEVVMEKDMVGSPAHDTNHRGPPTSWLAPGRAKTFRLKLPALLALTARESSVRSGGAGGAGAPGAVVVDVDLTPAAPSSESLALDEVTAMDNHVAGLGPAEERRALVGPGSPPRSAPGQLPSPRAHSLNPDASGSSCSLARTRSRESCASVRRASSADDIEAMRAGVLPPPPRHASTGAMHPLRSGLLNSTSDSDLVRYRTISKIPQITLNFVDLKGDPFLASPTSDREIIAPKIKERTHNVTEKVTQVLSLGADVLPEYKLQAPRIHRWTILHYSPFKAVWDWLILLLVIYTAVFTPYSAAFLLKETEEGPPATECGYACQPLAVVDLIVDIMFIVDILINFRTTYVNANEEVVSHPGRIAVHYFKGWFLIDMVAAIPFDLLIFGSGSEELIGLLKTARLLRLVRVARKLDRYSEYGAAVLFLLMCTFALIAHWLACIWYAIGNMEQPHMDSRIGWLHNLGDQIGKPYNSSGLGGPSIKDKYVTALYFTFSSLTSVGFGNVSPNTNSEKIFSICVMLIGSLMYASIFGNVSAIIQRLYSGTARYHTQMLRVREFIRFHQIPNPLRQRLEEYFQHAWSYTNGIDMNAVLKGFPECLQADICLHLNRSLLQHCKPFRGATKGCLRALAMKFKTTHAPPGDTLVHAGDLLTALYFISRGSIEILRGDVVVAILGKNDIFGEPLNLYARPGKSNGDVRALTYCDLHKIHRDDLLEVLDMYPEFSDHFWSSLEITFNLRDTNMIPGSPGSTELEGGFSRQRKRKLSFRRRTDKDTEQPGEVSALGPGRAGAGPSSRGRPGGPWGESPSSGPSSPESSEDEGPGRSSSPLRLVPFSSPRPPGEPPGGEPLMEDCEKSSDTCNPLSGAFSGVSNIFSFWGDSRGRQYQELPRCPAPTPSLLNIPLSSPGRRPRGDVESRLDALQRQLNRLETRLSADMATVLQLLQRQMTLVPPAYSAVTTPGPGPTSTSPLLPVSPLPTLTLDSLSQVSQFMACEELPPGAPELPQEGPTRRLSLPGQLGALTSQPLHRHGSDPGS
T2 sequence (Q12809 whole entry): as above

Row | Structure (SMILES) | inhibition at 0.1 µM (hERG; 0.1 μM) | inhibition at 1 µM (hERG; 1 μM) | inhibition at 10 µM (hERG; 10 μM) | hERG inhibition [1] | reaction time to the thermal stimulus (hot plate) (male Albino Swiss mice; mice, 5 mg/kg i.p.) | reaction time to the thermal stimulus (hot plate) (male Albino Swiss mice; mice, 10 mg/kg i.p., 30, 90, 120 and 180 min) | reaction time to the thermal stimulus (hot plate) (male Albino Swiss mice; mice, 20 mg/kg i.p., 30, 90, 120 and 180 min) | antinociceptive effect in hot plate with WAY-100635 (male Albino Swiss mice; mice, (S)-1 10 mg/kg + WAY-100635 3 mg/kg, at 30 min) | neurons showing sEPSC frequency decrease ([2]; 10 μM) | neurons showing outward current in presence of naloxone ([2]; 10 μM (S)-1, naloxone present) | neurons showing significant decrease in sEPSC frequency in presence of naloxone ([2]; 10 μM (S)-1, naloxone present) | outward current in presence of WAY-100635 ([2]; (S)-1 with WAY-100635 10 μM, 7 neurons tested) | neurons showing slow outward current ([2]; bath application 10 μM) | MPE values in the hot plate test (male Albino Swiss mice; mice, 5, 10 and 20 mg/kg i.p., 30-180 min) | neurons showing sEPSC frequency decrease ([2]; 50 μM) | neurons showing slow outward current ([2]; 50 μM) | 5-HT1AR affinity pKi (5-HT1AR [3]) | selectivity 5-HT1A/α1 (α1) | potency pD2 (5-HT1AR [4]) | relative effectiveness (Emax) (5-HT1AR [4])
1 | c1ccc(C2(c3ccccc3)OC[C@H](CNCCOc3ccccc3-c3ccncc3)O2)cc1 [(S)-1, N-[(2,2-Diphenyl-1,3-dioxolan-4-yl)methyl]-2-[2-(pyridin-4-yl)phenoxy]ethan-1-ammonium hydrogenoxalate] | -3.35% | 5.61% | 66.7% | does not inhibit hERG | a significant effect was only noted at 120 and 180 min | significantly increased | significantly increased the reaction time | significantly reversed the antinociceptive effect | 5 out of 12 | 5 out of 12 | 6 out of 12 | failed to evoke the outward currents | 5 out of 12 | – | – | – | – | – | – | –
2 | c1ccc(C2(c3ccccc3)OCC(CNCCOc3ccccc3-c3ccncc3)O2)cc1 (racemic) [rac-1, N-[(2,2-diphenyl-1,3-dioxolan-4-yl)methyl]-2-[2-(pyridin-4-yl)phenoxy]ethan-1-ammonium hydrogenoxalate] | – | – | – | – | – | – | – | – | – | – | – | – | not effective | did not reveal any significant change in the MPE values | 7 out of 23 | 5 out of 23 | 9.2 | 135 | 8.83 | –
3 | Cn1cncc1-c1ccccc1OCCNCC1COC(c2ccccc2)(c2ccccc2)O1 (racemic) [rac-2, N-((2,2-diphenyl-1,3-dioxolan-4-yl)methyl)-2-(2-(1-methyl-1H-imidazol-5-yl)phenoxy)ethan-1-ammonium hydrogenoxalate] | – | – | – | – | – | – | – | – | – | – | – | – | – | – | – | – | 8.98 | 132 | 5.46 | 240%
